From patent US20230143612A1 (Arbutus Biopharma Corporation, priority 2020, published 2023)

Biological target: PD-L1 His protein / PD-1 Fc protein (Homo sapiens, UniProt Q9NZQ7)
Test: HTRF Assay (PD-1/PD-L1 interaction)
Type: binding
Details: PD-L1 His 6 nM, PD-1 Fc 6 nM
Method in brief: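 HTRF: PD-L1 His (6 nM final), compound (3-fold dilutions, 20 μM to 0.001 μM final) and PD-1 Fc (6 nM final) preincubated 15 min at room temperature. Anti-human IgG-XL665 and anti-6HIS Tb cryptate (mixed at 6.7 nM and 0.35 nM) then added for 1 h at room temperature before reading.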

Sequence of PD-L1 His protein / PD-1 Fc protein (Q9NZQ7 19-238 limits assumed): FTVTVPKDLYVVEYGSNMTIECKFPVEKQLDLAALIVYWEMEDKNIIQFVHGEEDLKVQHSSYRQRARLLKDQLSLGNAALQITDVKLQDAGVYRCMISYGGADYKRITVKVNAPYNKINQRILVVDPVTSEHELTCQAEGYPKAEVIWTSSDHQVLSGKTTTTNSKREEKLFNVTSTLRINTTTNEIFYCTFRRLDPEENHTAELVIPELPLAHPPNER

Q: For `COc1cc(-c2cccc(-c3cccc(-c4ccn5c(=O)c(CNC[C@@H]6CCC(=O)N6)cnc5c4)c3C)c2Cl)ccc1CNC[C@@H]1CCC(=O)N1` [Example 66, 8-(2′-Chloro-3″-methoxy-2-methyl-4″-(((((S)-5-oxopyrrolidin-2-yl)methyl)amino)methyl)-[1,1′:3′,1″-terphenyl]-3-yl)-3-(((((S)-5-oxopyrrolidin-2-yl)methyl)amino)methyl)-4H-pyrido[1,2-a]pyrimidin-4-one], which IC50 is on record?
A: The IC50 was 5.2 nM.

Q: For `COc1nc(-c2cccc(-c3cccc(-c4ccc5c(OC)c(CNC[C@@H]6CCC(=O)N6)cc(Cl)c5n4)c3Cl)c2Cl)cc(F)c1CNC[C@@H]1CCC(=O)N1` [Example 398, (S)-5-((((8-Chloro-2-(2,2′-dichloro-3′-(4-fluoro-6-methoxy-5-(((((S)-5-oxopyrrolidin-2-yl)methyl)amino)methyl)pyridin-2-yl)-[1,1′-biphenyl]-3-yl)-5-methoxyquinolin-6-yl)methyl)amino)methyl)pyrrolidin-2-one], which IC50 is on record?
A: Its IC50 is 28 nM.

Q: For `CNC(=O)CN(C)Cc1cnc2cc(-c3cccc(-c4cccc(-c5ccc(CNC[C@@H]6CCC(=O)N6)c(OC)n5)c4Cl)c3Cl)ccn2c1=O` [Example 200, (S)-2-(((8-(2,2′-Dichloro-3′-(6-methoxy-5-((((5-oxopyrrolidin-2-yl)methyl)amino)methyl)pyridin-2-yl)-[1,1′-biphenyl]-3-yl)-4-oxo-4H-pyrido[1,2-a]pyrimidin-3-yl)methyl)(methyl)amino)-N-methylacetamide], which IC50 is on record?
A: The IC50 was 0.1 nM.

Q: `N#CCCOc1cc(/C=C/c2cccc(-c3cccc(-c4ccn5c(=O)c(CNC[C@@H]6CCC(=O)N6)cnc5c4)c3Cl)c2Cl)c(Cl)cc1CN1CC[C@H](C(=O)O)C1` [Example 173, (S)-1-(5-Chloro-2-(2-cyanoethoxy)-4-((E)-2-(2,2′-dichloro-3′-(4-oxo-3-(((((S)-5-oxopyrrolidin-2-yl)methyl)amino)methyl)-4H-pyrido[1,2-a]pyrimidin-8-yl)-[1,1′-biphenyl]-3-yl)vinyl)benzyl)pyrrolidine-3-carboxylic acid] was tested. Which IC50 did it give?
A: The IC50 was 0.4 nM.

Q: With `COc1nc(-c2cccc(-c3cccc(-c4ccn5c(=O)c(CNCC6(CO)CC6)cnc5c4)c3Cl)c2Cl)ccc1CNC[C@@H]1CCC(=O)N1` [Example 301, (S)-8-(2,2′-Dichloro-3′-(6-methoxy-5-((((5-oxopyrrolidin-2-yl)methyl)amino)methyl)pyridin-2-yl)-[1,1′-biphenyl]-3-yl)-3-((((1-(hydroxymethyl)cyclopropyl)methyl)amino)methyl)-4H-pyrido[1,2-a]pyrimidin-4-one] as the compound, how does the IC50 read?
A: The IC50 was 40 nM.

Q: How did the IC50 turn out when `CNC(=O)CNCc1cnc2cc(-c3cccc(-c4cccc(-c5ccc(CNC[C@@H]6CCC(=O)N6)c(OC)n5)c4Cl)c3Cl)ccn2c1=O` [Example 202, (S)-2-(((8-(2,2′-Dichloro-3′-(6-methoxy-5-((((5-oxopyrrolidin-2-yl)methyl)amino)methyl)pyridin-2-yl)-[1,1′-biphenyl]-3-yl)-4-oxo-4H-pyrido[1,2-a]pyrimidin-3-yl)methyl)amino)-N-methylacetamide] was run?
A: The IC50 was 0.1 nM.

Q: How did the IC50 turn out when `COc1nc(-c2cccc(-c3cccc(-c4cc5c(=O)n(C)c(CNCCCF)nn5c4)c3Cl)c2Cl)cc(Cl)c1CNC[C@@H]1CCC(=O)N1` [Example 490, (S)-6-(2,2′-Dichloro-3′-(4-chloro-6-methoxy-5-((((5-oxopyrrolidin-2-yl)methyl)amino)methyl)pyridin-2-yl)-[1,1′-biphenyl]-3-yl)-2-(((3-fluoropropyl)amino)methyl)-3-methylpyrrolo[2,1-f][1,2,4]triazin-4(3H)-one] was run?
A: Its IC50 is 0.1 nM.

Q: `COC(=O)C[C@H](O)CNCc1cnc2cc(-c3cccc(-c4cccc(-c5ccc(CNC[C@@H]6CCC(=O)N6)c(OC)n5)c4Cl)c3Cl)ccn2c1=O` [Example 220, Methyl (3S)-4-[[8-[2-chloro-3-[2-chloro-3-[6-methoxy-5-[[[(2S)-5-oxopyrrolidin-2-yl]methylamino]methyl]-2-pyridyl]phenyl]phenyl]-4-oxo-pyrido[1,2-a]pyrimidin-3-yl]methylamino]-3-hydroxy-butanoate] was tested. Which IC50 did it give?
A: The IC50 was 0.1 nM.

Q: With `Cc1c(-c2ccn3c(=O)c(CNC[C@@H]4CCC(=O)N4)cnc3c2)cccc1-c1cccc(-c2ccc(CNC[C@@H]3CCC(=O)N3)cc2)c1Cl` [Example 65, 8-(2′-Chloro-2-methyl-4″-(((((S)-5-oxopyrrolidin-2-yl)methyl)amino)methyl)-[1,1′:3′,1″-terphenyl]-3-yl)-3-(((((S)-5-oxopyrrolidin-2-yl)methyl)amino)methyl)-4H-pyrido[1,2-a]pyrimidin-4-one] as the compound, how does the IC50 read?
A: Its IC50 is 5.6 nM.

Q: `COc1nc(-c2cccc(-c3cccc(-c4ccn5c(=O)c(CNC[C@@H]6CCC(=O)N6)cnc5c4)c3Cl)c2Cl)ccc1CNC[C@@H](C)O` [Example 198, 8-(2,2′-Dichloro-3′-(5-((((R)-2-hydroxypropyl)amino)methyl)-6-methoxypyridin-2-yl)-[1,1′-biphenyl]-3-yl)-3-(((((S)-5-oxopyrrolidin-2-yl)methyl)amino)methyl)-4H-pyrido[1,2-a]pyrimidin-4-one] was tested. Which IC50 did it give?
A: The IC50 was 0.3 nM.

Q: For `COc1nc(-c2cccc(-c3cccc(-c4ccn5c(=O)c(CNCCCC(F)(F)C(F)(F)F)cnc5c4)c3Cl)c2Cl)ccc1CNC[C@@H]1CCC(=O)N1` [Example 223, (S)-8-(2,2′-dichloro-3′-(6-methoxy-5-((((5-oxopyrrolidin-2-yl)-methyl)-amino)methyl)-pyridin-2-yl)-[1,1′-biphenyl]-3-yl)-3-(((4,4,5,5,5-pentafluoropentyl)amino)-methyl)-4H-pyrido[1,2-a]pyrimidin-4-one], which IC50 is on record?
A: The IC50 was 10 nM.

Q: How did the IC50 turn out when `COc1nc(-c2cccc(-c3cccc(-c4ccn5c(=O)c(CNCCN6CCCC6=O)cnc5c4)c3Cl)c2Cl)ccc1CNC[C@@H]1CCC(=O)N1` [Example 219, 8-[2-Chloro-3-[2-chloro-3-[6-methoxy-5-[[[(2S)-5-oxopyrrolidin-2-yl]methylamino]methyl]-2-pyridyl]phenyl]phenyl]-3-[[2-(2-oxopyrrolidin-1-yl)ethylamino]methyl]pyrido[1,2-a]pyrimidin-4-one] was run?
A: Its IC50 is 0.7 nM.

Q: Which IC50 does the source give for `COc1nc(-c2cccc(-c3cccc(-c4ccn5c(=O)c(CNC[C@H](C)O)cnc5c4)c3Cl)c2Cl)ccc1CNC[C@@H](C)O` [Example 196, 8-(2,2′-Dichloro-3′-(5-((((R)-2-hydroxypropyl)amino)methyl)-6-methoxypyridin-2-yl)-[1,1′-biphenyl]-3-yl)-3-((((S)-2-hydroxypropyl)amino)methyl)-4H-pyrido[1,2-a]pyrimidin-4-one] here?
A: Its IC50 is 2.8 nM.

Q: With `COc1nc(-c2cccc(-c3cccc(-c4ccc5c(c4Cl)CN(C[C@@H]4CCC(=O)N4)CC5)c3Cl)c2Cl)ccc1CNC[C@@H]1CCC(=O)N1` [Example 427, (S)-5-((8-Chloro-7-(2,2′-dichloro-3′-(6-methoxy-5-(((((S)-5-oxopyrrolidin-2-yl)methyl)-amino)-methyl)-pyridin-2-yl)-[1,1′-biphenyl]-3-yl)-3,4-dihydroisoquinolin-2(1H)-yl)methyl)pyrrolidin-2-one] as the compound, how does the IC50 read?
A: The IC50 was 5.2 nM.

Q: With `COc1nc(-c2cccc(-c3cccc(-c4ccn5c(=O)c(CN6CCN7C(=O)CCC7C6)cnc5c4)c3Cl)c2Cl)ccc1CNC[C@@H]1CCC(=O)N1` (stereo partly drawn) [Example 152, 8-(2,2′-Dichloro-3′-(6-methoxy-5-(((((S)-5-oxopyrrolidin-2-yl)methyl)amino)methyl)pyridin-2-yl)-[1,1′-biphenyl]-3-yl)-3-((6-oxohexahydropyrrolo[1,2-a]pyrazin-2(1H)-yl)methyl)-4H-pyrido[1,2-a]pyrimidin-4-one] as the compound, how does the IC50 read?
A: Its IC50 is 3.1 nM.

Q: With `Cn1cc(CNC[C@@H]2CCC(=O)N2)c2ccc(-c3cccc(-c4cccc(-c5ccc6c(CNC[C@@H]7CCC(=O)N7)cn(C)c6n5)c4Cl)c3Cl)nc21` [Example 417, (5S)-5-[[[6-[2-Chloro-3-[2-chloro-3-[1-methyl-3-[[[(2S)-5-oxopyrrolidin-2-yl]methylamino]methyl]pyrrolo[2,3-b]pyridin-6-yl]phenyl]phenyl]-1-methyl-pyrrolo[2,3-b]pyridin-3-yl]methylamino]methyl]pyrrolidin-2-one] as the compound, how does the IC50 read?
A: Its IC50 is 32 nM.

Q: `COc1nc(-c2cccc(-c3cccc(-c4ccc5c(n4)N(C)CCC5NC[C@@H]4CCC(=O)N4)c3Cl)c2Cl)ccc1CNC[C@@H]1CCC(=O)N1` (mixture of isomers) [Example 51, (5S)-5-(((7-(2,2′-Dichloro-3′-(6-methoxy-5-(((((S)-5-oxopyrrolidin-2-yl)methyl)amino)methyl)pyridin-2-yl)-[1,1′-biphenyl]-3-yl)-1-methyl-1,2,3,4-tetrahydro-1,8-naphthyridin-4-yl)amino)methyl)pyrrolidin-2-one] was tested. Which IC50 did it give?
A: Its IC50 is 2.9 nM.

Q: Which IC50 does the source give for `COc1nc(-c2cccc(-c3cccc(-c4ccc5c(c4F)CN(C[C@@H]4CCC(=O)N4)CC5)c3Cl)c2Cl)ccc1CNC[C@@H]1CCC(=O)N1` [Example 428, (S)-5-((7-(2,2′-Dichloro-3′-(6-methoxy-5-(((((S)-5-oxopyrrolidin-2-yl)methyl)-amino)methyl)-pyridin-2-yl)-[1,1′-biphenyl]-3-yl)-8-fluoro-3,4-dihydroisoquinolin-2(1H)-yl)methyl)-pyrrolidin-2-one] here?
A: Its IC50 is 140 nM.

Q: For `COc1nc(-c2cccc(-c3cccc(-c4ccn5c(=O)c(CNCCNC(C)=O)cnc5c4)c3Cl)c2Cl)ccc1CNC[C@@H]1CCC(=O)N1` [Example 81, (S)—N-(2-(((8-(2,2′-Dichloro-3′-(6-methoxy-5-((((5-oxopyrrolidin-2-yl)methyl)amino)methyl)pyridin-2-yl)-[1,1′-biphenyl]-3-yl)-4-oxo-4H-pyrido[1,2-a]pyrimidin-3-yl)methyl)amino)ethyl)acetamide], which IC50 is on record?
A: Its IC50 is 8.3 nM.

Q: Which IC50 does the source give for `COc1nc(-c2cccc(-c3cccc(-c4cc5c(=O)n(C)c(CNC(C)(C)C)nn5c4)c3Cl)c2Cl)ccc1CNC[C@@H]1CCC(=O)N1` [Example 479, 2-[(tert-Butylamino)methyl]-6-[2-chloro-3-[2-chloro-3-[6-methoxy-5-[[[(2S)-5-oxopyrrolidin-2-yl]methylamino]methyl]-2-pyridyl]phenyl]phenyl]-3-methyl-pyrrolo[2,1-f][1,2,4]triazin-4-one] here?
A: The IC50 was 14 nM.
